Patent publication US7550485B2, “Substituted N-heterocycle derivatives and methods of their use” (Wyeth, priority 2003, dated 2009)
Where a name gives a salt, the structure may show the parent alone.

Target: T1, hNET (Homo sapiens, UniProt P23975)
T1 construct: expressed in transfected cells
Assay: Norepinephrine (NE) uptake assay in MDCK-Net6 cells stably transfected with human hNET
Format: cell-based
Conditions: [3H]NE uptake; for inhibition at 1 µM: MDCK-Net6, 1 μM test compound; for inhibition at 30 µM: MDCK-Net6, 30 μM test compound (stated in cell); for EC50: test range 1 to 10,000 nM
Procedure, shortened: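 MDCK-Net6 cells preincubated 20 min at 37 °C with compound (1 to 10,000 nM) in HEPES buffer pH 7.4 with pargyline and ascorbate, then 5 min [3H]NE uptake (120 nM final). Lysed cells counted by scintillation; 1 μM desipramine defined minimum uptake; EC50 from logistic fit of pooled data.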

T1 sequence (P23975 whole entry): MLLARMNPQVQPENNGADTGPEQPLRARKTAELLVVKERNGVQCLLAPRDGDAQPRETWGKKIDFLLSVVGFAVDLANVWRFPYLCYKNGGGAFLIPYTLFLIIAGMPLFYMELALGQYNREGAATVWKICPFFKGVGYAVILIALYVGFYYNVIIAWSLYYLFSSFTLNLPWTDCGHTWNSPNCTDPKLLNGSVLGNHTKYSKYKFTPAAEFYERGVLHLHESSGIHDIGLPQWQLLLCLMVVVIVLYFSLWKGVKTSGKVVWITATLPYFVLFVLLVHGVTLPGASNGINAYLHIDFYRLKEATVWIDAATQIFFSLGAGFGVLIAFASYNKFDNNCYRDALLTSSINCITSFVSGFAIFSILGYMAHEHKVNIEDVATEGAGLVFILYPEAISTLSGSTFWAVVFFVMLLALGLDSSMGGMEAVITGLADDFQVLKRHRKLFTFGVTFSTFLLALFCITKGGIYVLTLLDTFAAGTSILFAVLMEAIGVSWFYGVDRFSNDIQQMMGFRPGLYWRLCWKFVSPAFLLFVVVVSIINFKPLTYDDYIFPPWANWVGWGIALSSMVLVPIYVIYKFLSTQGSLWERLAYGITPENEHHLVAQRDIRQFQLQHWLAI

Compound	inhibition at 1 µM [%]	other results
N[C@@H]1CCCN(CC(c2cccc(OC(F)(F)F)c2)C2(O)CCCCC2)C1 (stereo partly drawn) [Example 187, 1-[2-{(3R)-3-aminopiperidin-1-yl]-1-[3-(trifluoromethoxy)phenyl]ethyl}cyclohexanol dihydrochloride]	62.3	
CN(C)[C@@H]1CCN(CC(c2cccc(OC(F)(F)F)c2)C2(O)CCCCC2)C1 (stereo partly drawn) [Example 219, 1-{2-[(3R)-3-(dimethylamino)pyrrolidin-1-yl]-1-[3-(trifluoromethoxy)phenyl]ethyl}cyclohexanol dihydrochloride]	53.1	
CN(C)C1CCN(CC(c2cccc(C(F)(F)F)c2)C2(O)CCCCC2)CC1 (stereo not drawn) [Example 321, 1-{2-[4-(dimethylamino)piperidin-1-yl]-1-[3-(trifluoromethyl)phenyl]ethyl}cyclohexanol dihydrochloride]	66.1	
NC1CCN(CC(c2ccc(Oc3ccccc3)cc2)C2(O)CCCCC2)CC1 (stereo not drawn) [Example 310, 1-{2-(4-aminopiperidin-1-yl)-1-(4-phenoxyphenyl)ethyl]cyclohexanol dihydrochloride]	44.1	
N[C@H]1CCN(CC(c2cccc(OC(F)(F)F)c2)C2(O)CCCCC2)C1 (stereo partly drawn) [Example 216, 1-{2-[(3S)-3-aminopyrrolidin-1-yl]-1-[3-(trifluoromethoxy)phenyl]ethyl}cyclohexanol dihydrochloride]	38.9	
CN(C)[C@H]1CCN(CC(c2ccc(OCc3ccccc3)c(Cl)c2)C2(O)CCCCC2)C1 (stereo partly drawn) [Example 211, 1-{1-[4-(benzyloxy)-3-chlorophenyl]-2-[(3S)-3-(dimethylamino)pyrrolidin-1-yl]ethyl}cyclohexanol dihydrochloride]	95.6	
N[C@H]1CCCN(CC(c2ccc(OCc3ccccc3)c(Cl)c2)C2(O)CCCCC2)C1 (stereo partly drawn) [Example 196, 1-{2-[(3S)-3-aminopiperidin-1-yl]-1-[4-(benzyloxy)-3-chlorophenyl]ethyl}cyclohexanol dihydrochloride]	92.2	
N[C@@H]1CCN(CC(c2cccc(OC(F)(F)F)c2)C2(O)CCCCC2)C1 (stereo partly drawn) [Example 386, 1-{2-[(3R)-3-aminopyrrolidin-1-yl]-1-[3-(trifluoromethoxy)phenyl]ethyl}cyclohexanol dihydrochloride]		inhibition at 30 µM: 82%
CNC1CCN(CC(c2ccc3ccccc3c2)C2(O)CCCCC2)CC1 (stereo not drawn) [Example 49, 1-[2-[4-(methylamino)piperidin-1-yl]-1-(2-naphthyl)ethyl]cyclohexanol dihydrochloride]	39	
CN(C)[C@@H]1CCCN(CC(c2cccc(OC(F)(F)F)c2)C2(O)CCCCC2)C1 (stereo partly drawn) [Example 188, 1-{2-[(3R)-3-(dimethylamino)piperidin-1-yl]-1-[3-(trifluoromethoxy)phenyl]ethyl}cyclohexanol dihydrochloride]	17.6	
NC1CCN(CC(c2cccc(Cl)c2)C2(O)CCCCC2)CC1 (stereo not drawn) [Example 35, 1-[2-(4-aminopiperidin-1-yl)-1-(3-chlorophenyl)ethyl]cyclohexanol dihydrochloride]	59	EC50: 52 nM
CN(C)C1CCN(CC(c2cccc(Cl)c2)C(C)(C)O)CC1 (stereo not drawn) [Example 274, 3-(3-chlorophenyl)-4-[4-(dimethylamino)piperidin-1-yl]-2-methylbutan-2-ol dihydrochloride]	50	
CCCC(O)(CCC)C(CN1CCC(N)CC1)c1cccc(Cl)c1 (stereo not drawn) [Example 282, 4-[2-(4-aminopiperidin-1-yl)-1-(3-chlorophenyl)ethyl]heptan-4-ol dihydrochloride]		inhibition at 10 µM (MDCK-Net6, 10 μM test compound (stated in cell)): 4.1%
COc1ccc(C(CN2CCC(N(C)C)CC2)C2(O)CCCCC2)cc1Br (stereo not drawn) [Example 318, 1-{1-(3-bromo-4-methoxyphenyl)-2-[4-(dimethylamino)piperidin-1-yl]ethyl}cyclohexanol dihydrochloride]	84	
OC1CCN(CC(c2cccc(OC(F)(F)F)c2)C2(O)CCCCC2)CC1 (stereo not drawn) [Example 240, 1-{2-(1-hydroxycyclohexyl)-2-[3-(trifluoromethoxy)phenyl]ethyl}piperidin-4-ol hydrochloride]	4.4	
CNC1CCN(CC(c2cccc(C(F)(F)F)c2)C2(O)CCCCC2)CC1 (stereo not drawn) [Example 30, 1-{2-[4-(methylamino)piperidin-1-yl]-1-[3-(trifluoromethyl)phenyl]ethyl}cyclohexanol dihydrochloride]	79	EC50: 530 nM
N[C@@H]1CCN(CC(c2cccc(C(F)(F)F)c2)C2(O)CCCCC2)C1 (stereo partly drawn) [Example 224, 1-{2-[(3R)-3-aminopyrrolidin-1-yl]-1-[3-(trifluoromethyl)phenyl]ethyl}cyclohexanol dihydrochloride]	27.5	
CN[C@@H]1CCCN(CC(c2ccc(OCc3ccccc3)c(Cl)c2)C2(O)CCCCC2)C1 (stereo partly drawn) [Example 192, 1-{1-[4-(benzyloxy)-3-chlorophenyl]-2-[(3R)-3-(methylamino)piperidin-1-yl]ethyl}cyclohexanol dihydrochloride]	88.5	
CN(C)C1CCN(CC(c2cccc(Cl)c2)C2CCCCCC2)CC1 (stereo not drawn) [Example 237, 1-[2-(3-chlorophenyl)-2-cycloheptylethyl]-N,N-dimethylpiperidin-4-amine dihydrochloride]	81.9	
CN(C)[C@H]1CCN(CC(c2cccc(Cl)c2)C2(O)CCCCC2)C1 (stereo partly drawn) [Example 199, 1-{1-(3-chlorophenyl)-2-[(3S)-3-(dimethylamino)pyrrolidin-1-yl]ethyl}cyclohexanol dihydrochloride]	80.7	
NC1CCN(CC(c2cccc(Oc3ccccc3)c2)C2(O)CCCCC2)CC1 (stereo not drawn) [Example 315, 1-[2-(4-aminopiperidin-1-yl)-1-(3-phenoxyphenyl)ethyl]cyclohexanol dihydrochloride]	75.2	
CN[C@H]1CCN(CC(c2cccc(Cl)c2)C2(O)CCCCC2)C1 (stereo partly drawn) [Example 198, 1-1-{1-(3-chlorophenyl)-2-[(3S)-3-(methylamino)pyrrolidin-1-yl]ethyl}cyclohexanol dihydrochloride]	77.8	
CN(C)[C@@H]1CCN(CC(c2ccc(OCc3ccccc3)cc2)C2(O)CCCCC2)C1 (stereo partly drawn) [Example 381, 1-{1-[4-(benzyloxy)phenyl]-2-[(3R)-3-(dimethylamino)pyrrolidin-1-yl]ethyl}cyclohexanol dihydrochloride]		inhibition at 30 µM: 95%

Further lines, with some results ahead:

inhibition at 1 µM [%]	Compound	other results
28	CN(C)[C@@H]1CCN(CC(c2cccc3ccccc23)C2(O)CCCCC2)C1 (stereo partly drawn) [Example 378, 1-[2-[(3R)-3-(dimethylamino)pyrrolidin-1-yl]-1-(1-naphthyl)ethyl]cyclohexanol dihydrochloride]	
39	CN(C)[C@@H]1CCN(CC(c2ccc3ccccc3c2)C2(O)CCCCC2)C1 (stereo partly drawn) [Example 375, 1-[2-[(3R)-3-(dimethylamino)pyrrolidin-1-yl]-1-(2-naphthyl)ethyl]cyclohexanol dihydrochloride]	
94	OC1([C@H](CN2CCC(N3CCCC3)CC2)c2cccc(OC(F)(F)F)c2)CCCCC1 [Example 365, 1-{(1S)-2-(4-pyrrolidin-1-ylpiperidin-1-yl)-1-[3-(trifluoromethoxy)phenyl]ethyl}cyclohexanol dihydrochloride]	EC50: 78 nM
56	CNC1CCN(C[C@@H](c2cccc(Cl)c2)C2CCCCC2)CC1 (single isomer, unassigned) [Example 356, dihydrochloride]	
79	COc1cc(C(CN2CCC(N(C)C)CC2)C2(O)CCCCC2)ccc1OCc1ccccc1 (stereo not drawn) [Example 451, 1-{1-[4-(benzyloxy)-3-methoxyphenyl]-2-[4-(dimethylamino)piperidin-1-yl]ethyl}cyclohexanol dihydrochloride]	
67	OC1(C(CN2CCC(N3CCOCC3)CC2)c2cccc(OC(F)(F)F)c2)CCCCC1 (stereo not drawn) [Example 361, 1-{2-(4-morpholin-4-ylpiperidin-1-yl)-1-[3-(trifluoromethoxy)phenyl]ethyl}cyclohexanol dihydrochloride]	EC50: 640 nM
30	CN[C@@H]1CCN(CC(c2ccc3ccccc3c2)C2(O)CCCCC2)C1 (stereo partly drawn) [Example 376, 1-[2-[(3R)-3-(methylamino)pyrrolidin-1-yl]-1-(2-naphthyl)ethyl]cyclohexanol dihydrochloride]	
96	CN(C)C1CCN(CC(c2ccc(OCc3ccccc3)c(Cl)c2)C2(O)CCCCC2)CC1 (stereo not drawn) [Example 429, 1-{1-[4-(benzyloxy)-3-chlorophenyl]-2-[4-(dimethylamino)piperidin-1-yl]ethyl}cyclohexanol]	EC50: 180 nM
82	COc1ccc2cc([C@H](CN3CCC(N4CCCCC4)CC3)C3(O)CCCCC3)ccc2c1 (single isomer, unassigned) [Example 354, dihydrochloride]	EC50: 400 nM
88	CN(C)[C@@H]1CCN(CC(c2ccc(OCc3ccccc3)c(Cl)c2)C2(O)CCCCC2)C1 (stereo partly drawn) [Example 384, 1-{1-[4-(benzyloxy)-3-chlorophenyl]-2-[(3R)-3-(dimethylamino)pyrrolidin-1-yl]ethyl}cyclohexanol dihydrochloride]	EC50: 450 nM
92	NC1CCN(CC(c2ccc(OCc3ccccc3)c(Cl)c2)C2(O)CCCCC2)CC1 (stereo not drawn) [Example 428, 1-{2-(4-aminopiperidin-1-yl)-1-[4-(benzyloxy)-3-chlorophenyl]ethyl}cyclohexanol dihydrochloride]	EC50: 110 nM
90	N[C@@H]1CCN(CC(c2ccc(OCc3ccccc3)c(Cl)c2)C2(O)CCCCC2)C1 (stereo partly drawn) [Example 383, 1-{2-[(3R)-3-aminopyrrolidin-1-yl]-1-[4-(benzyloxy)-3-chlorophenyl]ethyl}cyclohexanol dihydrochloride]	
81	COc1ccc2cc(C(CN3CCC(N4CCCCC4)CC3)C3(O)CCCCC3)ccc2c1 (stereo not drawn) [Example 346, 1-[2-(1,4′-bipiperidin-1′-yl)-1-(6-methoxy-2-naphthyl)ethyl]cyclohexanol dihydrochloride]	EC50: 190 nM
